Read-outs that look alike come from different tables or passages of the source.
Columns and labels:
[1] = system: tumor-derived methionine adenosyltransferases; conditions: cited from earlier work
human retrovirus = conditions: cited from earlier work
[2] = system: vesicular stomatitis virus; conditions: primary rabbit kidney cells; cited from earlier work
SAH hydrolase = conditions: cited from earlier work; for Ki: De Clercq & Cools (1985)
SAM synthetase = conditions: cited from earlier work
L1210 cells = conditions: absence of polyamine depletion; cited from earlier work
[3] = mice, cited from earlier work
tRNA methylases = conditions: cited from earlier work
GSH = conditions: cited from earlier work; for reduction of GSH levels: 0.2 mmol/kg (S) and 0.4 mmol/kg (S,R), liver, kidney and pancreas; for depletion of GSH: 0.2 mg/kg
SAHH hydrolase = conditions: cited from earlier work
[4] = system: vaccinia virion mRNA(guanine-7)methyltransferase; conditions: 100 μM; cited from earlier work
methyl transfer from SAM = conditions: cited from earlier work
[5] = system: RNA methyltransferase from Streptomyces antibioticus; conditions: 100 μM; cited from earlier work
adenosine deaminase = conditions: cited from earlier work
[6] = system: S. aureus 27660 (erythromycin resistant); type: cell-based; conditions: in combination with erythromycin
[7] = system: RNA synthesis in Hela cells; conditions: cited from earlier work

## NC1(C(=O)O)CCCCC1 [1-aminocyclohexanecarboxylic acid]
[1]
  inhibition: effective inhibitors

## Nc1ncnc2c1ncn2C[C@H](O)CO [(S)-DHPA, 9(S)-(2,3-dihydroxypropyl)adenine]
Human retrovirus
  effective inhibitory concentration: about 60 μg/ml
[2]
  minimum inhibitor concentration (50% reduction of cytopathogenicity): 20 µg/mL
SAH hydrolase
  Ki: 1.4 µM

## NC1(C(=O)O)CC2CC1C2 (single isomer, unassigned; (+)) [(+)-2-aminobicyclo[2.1.1]hexane-2-carboxylic acid]
[1]
  inhibition: most effective
SAM synthetase
  SAM synthetase inhibition: most effective
L1210 cells
  IC50: 5000 µM

## C/C(Cl)=C/C[C@H](N)C(=O)O [(Z)-L-2-amino-5-chloro-trans-4-hexanoic acid]
[1]
  inhibition: effective inhibitors

## CC1(C)N=C(N)N=C(N)N1c1ccc(CCCCc2ccc(S(=O)(=O)F)cc2Cl)c(Cl)c1 [NSC 127755]
[3]; s.c.
  s.c. toxicity (LD100): ≥ 156 mg/kg

## 6-mercaptoadenine
tRNA methylases
  inhibition of tRNA methylases: gave inhibition that would be acceptable

## NC1(C(=O)O)CC2CCC2C1 (stereo not shown) [3-aminobicyclo[3.2.0]heptane-3-carboxylic acid]
SAM synthetase
  SAM synthetase inhibition: effective inhibitors

## CS/C=C\[C@H](N)C(=O)O (stereo in doubt) [L-cis-AMTB, L-2-amino-4-methylthio-cis-but-3-enoic acid]
SAM synthetase
  inhibitory potency relative to L-cis-AMB: slightly less inhibitory than L-cis-AMB

## N[C@]1(C(=O)O)C[C@H]2CC[C@@H]1C2 [(1R,2R,4S) isomer of 2-aminonorbornane-2-carboxylic acid, 2-aminonorbornane-2-carboxylic acid]
SAM synthetase
  SAM synthetase inhibition: effective inhibitors

## 6-methoxyadenine
tRNA methylases
  inhibition of tRNA methylases: possible exceptions

## CCCCS(=N)(=O)CC[C@H](N)C(=O)O (stereo partly drawn) [L-buthionine-(S,R)-sulfoximine]
GSH
  reduction of GSH levels: effective in reducing GSH levels

## Nc1ncnc2c1ncn2[C@@H]1C=C[C@@H](O)[C@H]1O [DHCeA, dihydroxycyclopentenyladenine]
SAHH hydrolase
  antiviral activity and cytotoxicity vs first generation: retained antiviral activity and considerably lower cytotoxicity than their parent first generation inhibitors

## Nc1ncnc2nc[nH]c12.O=P(O)(O)O [adenine phosphate]
tRNA methylases
  inhibition of tRNA methylases: gave inhibition that would be acceptable

## Nc1nc(F)nc2c1ncn2[C@@H]1O[C@H](CSCCC(N)C(=O)O)[C@@H](O)[C@H]1O (stereo partly shown) [2-FSAH, 2-fluoro-S-adenosylhomocysteine]
SAH hydrolase
  SAH hydrolase inhibition: effective inhibitor of SAHH

## CC[Se]CCC(N)C(=O)O (racemic) [seleno-DL-ethionine]
[1]
  inhibition: effective inhibitors

## Nc1nc(N)c2ncn([C@@H]3C[C@H](O)[C@@H](O)[C@H]3O)c2n1 (relative stereo) [2,6-diamino-analogue]
SAH hydrolase
  SAH hydrolase inhibition: inhibitors of SAHH

## Nc1c2nc[nH]c2nc[n+]1[O-] [adenine-N^1 -oxide]
tRNA methylases
  inhibition of tRNA methylases: gave inhibition that would be acceptable

## NC(C(=O)O)C1CCCC1 (stereo not shown) [cyclopentaneglycine]
SAM synthetase
  SAM synthetase inhibition: effective inhibitors

## Nc1ncnc2c1ncn2[C@@H]1O[C@H](CS(=O)(=O)CC[C@H](N)C(=O)O)[C@@H](O)[C@H]1O [S-adenosyl-L-homocysteine sulfone]
[4]
  inhibition: 40%

## C[S+](CCCN)C[C@H]1O[C@@H](n2cnc3c(N)ncnc32)[C@H](O)[C@@H]1O (stereo partly shown) [S-adenosyl-(5')-3-methylthio-propylamine]
Methyl transfer from SAM
  inhibition: effective inhibitors

## C[Se]CC[C@H](N)C(=O)O [selenomethionine]
L1210 cells
  IC50: 130 µM

## Nc1ncnc2c1ncn2[C@@H]1C[C@H](CSCC[C@H](N)C(=O)O)[C@@H](O)[C@H]1O [S-aristeromycinyl-L-homocysteine]
[4]
  inhibition: 66%

## Nc1nccc2c1ncn2[C@@H]1O[C@H](CSCC[C@H](N)C(=O)O)[C@@H](O)[C@H]1O [S-(3-deazaadenosyl)-L-homocysteine]
[4]
  inhibition: 84%

## Nc1ncnc2c1ncn2[C@@H]1O[C@H](C[S+]([O-])CC[C@H](N)C(=O)O)[C@@H](O)[C@H]1O (stereo partly drawn) [S-adenosyl-L-homocysteine sulfoxide]
[4]
  inhibition: 47%

## C[S+](CC[C@H](N)C(=O)O)C[C@H]1O[C@@H](n2cnc3c(=O)[nH]cnc32)[C@H](O)[C@@H]1O (stereo partly drawn) [S-inosyl-L-methionine]
Methyl transfer from SAM
  inhibition: effective inhibitors

## CCCC[S@@](=N)(=O)CC[C@H](N)C(=O)O [L-buthionine-(R)-sulfoximine]
GSH; kidney
  depletion of GSH: modest depletion in the kidney
GSH; liver or pancreas
  depletion of GSH: did not show any significant depletion of GSH

## CCSCC[C@H](N)C(=O)O [L-ethionine]
[1]
  inhibition: effective inhibitors

## Nc1ncnc2c1ncn2C1OC(CC2CCC(N)C(=O)N2)C(O)C1O (stereo not shown) [cyclosinefungin]
[5]
  inhibition: 50%

## CC(C)COC(=O)C(O)Cn1cnc2c(N)ncnc21 (racemic) [(RS)-AHPA isobutyl ester]
Human retrovirus
  effective inhibitory concentration: ~1.2 µg/mL
Human retrovirus; in vitro cytotoxicity vs activity
  activity index: 80
[2]
  minimum inhibitor concentration (50% reduction of cytopathogenicity): 2 µg/mL

## OC[C@H]1O[C@@H](n2cnc3c2N=CNC[C@H]3O)[C@H](O)[C@@H]1O [Coformycin]
Adenosine deaminase
  ADA inhibition: potent inhibitors of ADA

## Nc1ncnc2c1ncn2[C@@H]1O[C@H](CO)[C@@H](O)[C@@H]1O [Ara-A, 9-β-arabinofuranosyladenine]
[3]; i.p.
  LD50: 4,677 mg/kg
[3]; orally
  LD50: 7,950 mg/kg
[6]
  enhanced killing with erythromycin: enhanced the killing
SAH hydrolase
  SAH hydrolase inhibition: suicide inactivators of SAH hydrolase
SAH hydrolase; suicide inactivation of SAH hydrolase
  activity relative to 2'-deoxyadenosine: twice as active as 2'-deoxyadenosine

## CN(C)c1ncnc2[nH]cnc12 [6-dimethyladenine]
tRNA methylases
  inhibition of tRNA methylases: possible exceptions

## CCCC[S@](=N)(=O)CC[C@H](N)C(=O)O [L-buthionine-(S)-sulfoximine]
GSH
  reduction of GSH levels: effective in reducing GSH levels

## Nc1ncnc2nc[nH]c12.O=S(=O)(O)O [adenine sulfate]
tRNA methylases
  inhibition of tRNA methylases: gave inhibition that would be acceptable

## Nc1nccc2c1ncn2[C@@H]1C[C@H](CO)[C@@H](O)[C@H]1O [carbocyclic 3-deazaadenosine, carbocyclic-3-deazaadenosine]
Human retrovirus
  effective inhibitory concentration: ~1.4 µg/mL
[2]
  minimum inhibitor concentration (50% reduction of cytopathogenicity): 0.2 µg/mL
SAH hydrolase
  Ki: 0.013 µM

## NC1(C(=O)O)CC2CC1C1CCCC21 [(1R,2R,4S) isomer of 2-amino-5,6-exo-trimethylenenorbornane-2-carboxylic acid, 2-amino-5,6-exo-trimethylenenorbornane-2-carboxylic acid]
SAM synthetase
  SAM synthetase inhibition: effective inhibitors

## CNc1ncnc2[nH]cnc12 [6-methyladenine]
tRNA methylases
  inhibition of tRNA methylases: gave inhibition that would be acceptable

## NC1(C(=O)O)CCC1 [1-aminocyclobutanecarboxylic acid]
[1]
  inhibition: effective inhibitors

## Nc1nccc2c1ncn2[C@@H]1CC[C@@H](O)[C@H]1O [c^3 -DHCaA, dihydroxycyclopentanyl-3-deazaadenine]
SAHH hydrolase
  antiviral activity and cytotoxicity vs first generation: retained antiviral activity and considerably lower cytotoxicity than their parent first generation inhibitors

## Nc1ncnc2c1ncn2CC(O)C(=O)O (racemic) [(RS)-AHPA, (R,S)-3-adenine-9-yl-2-hydroxypropanocic acid]
SAH hydrolase
  Ki: 0.073 µM

## Nc1ncnc2c1ncn2[C@@H]1O[C@H](CO)C[C@H]1O [Cordycepin, 3'-deoxyadenosine]
[7]; 200 μg/ml
  RNA synthesis: totally inhibits RNA synthesis
[7]
  DNA and protein synthesis: not affected
  synthesis of mature rRNA, ribosomal precursor 45S RNA and tRNA: inhibits the synthesis of mature rRNA, ribosomal precursor 45S RNA and tRNA
[7]; lower concentrations
  rRNA and tRNA syntheses: selectively inhibited

## Nc1ncnc2c1ncn2[C@@H]1CC[C@@H](O)[C@H]1O [DHCaA, dihydroxycyclopentanyladenine]
SAHH hydrolase
  antiviral activity and cytotoxicity vs first generation: retained antiviral activity and considerably lower cytotoxicity than their parent first generation inhibitors

## CSCSC[C@H]1O[C@@H](n2cnc3c(N)ncnc32)[C@H](O)[C@@H]1O [5'-S-methylthiomethyladenosine]
[5]
  inhibition: 65%

## CC=CC[C@H](N)C(=O)O [L-2-amino-4-hexanoic acid]
[1]
  inhibition: effective inhibitors

## Nc1nccc2c1ncn2[C@@H]1C=C[C@@H](O)[C@H]1O [c^3 -DHCeA, dihydroxycyclopentenyl-3-deazaadenine]
SAHH hydrolase
  antiviral activity and cytotoxicity vs first generation: retained antiviral activity and considerably lower cytotoxicity than their parent first generation inhibitors

## OCC1NC=Nc2c1ncn2[C@@H]1O[C@H](CO)[C@@H](O)[C@H]1O (stereo partly shown) [1,6-dihydro-6-hydroxy-methylpurine nucleoside]
Adenosine deaminase
  ADA inhibition: inhibitors of ADA

## Nc1ncnc2c1ncn2[C@H]1C[C@H](O)[C@@H](CO)O1 [2'-deoxyadenosine]
[6]
  enhanced killing with erythromycin: enhanced the killing
SAH hydrolase
  SAH hydrolase inhibition: suicide inactivators of SAH hydrolase
